Results published in article PMC11239938, “Inhibition of DUSP18 impairs cholesterol biosynthesis and promotes anti-tumor immunity in colorectal cancer” (Nature Communications, 2024).

Key:
[1] = molecular target: T1, DUSP18 (Homo sapiens, UniProt Q8NEJ0); assay: in vitro dephosphorylation of Flag-USF1, phospho-immunoblot; assay type: biochemical; conditions: 40 μM Lumacaftor; recombinant GST-DUSP18-His; substrate Flag-USF1 WT
T1 construct: purified human DUSP18 for MST (Methods: cell samples lysed with RIPA buffer); recombinant GST-DUSP18-His for dephosphorylation assay; endogenous in HCT116 and SW480 cells for CETSA
T1 sequence (Q8NEJ0 1-188): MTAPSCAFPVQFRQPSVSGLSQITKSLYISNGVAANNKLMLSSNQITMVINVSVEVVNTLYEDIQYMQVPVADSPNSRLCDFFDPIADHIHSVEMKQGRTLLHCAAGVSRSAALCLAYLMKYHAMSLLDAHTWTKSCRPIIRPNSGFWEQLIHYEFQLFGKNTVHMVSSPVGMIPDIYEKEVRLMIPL

[2] = molecular target: T1, DUSP18; assay: microscale thermophoresis
Protocol: microscale thermophoresis on DUSP18 | Kd) value was determined as the binding of Lumacaftor to purified human DUSP18

Kd [2]: 29.5 ± 3.5 µM
SMILES: Cc1ccc(NC(=O)C2(c3ccc4c(c3)OC(F)(F)O4)CC2)nc1-c1cccc(C(=O)O)c1 [Lumacaftor]
in vitro dephosphorylation of Flag-USF1, phospho-immunoblot [1]: Lumacaftor inhibited the ability of purified DUSP18 to dephosphorylate WT USF1
